From the NIST ThermoML archive (doi:10.1021/je050092d)

Assay: molar heat capacity at constant pressure
Conditions: 101.33 kPa, Vacuum adiabatic calorimetry

CCCCCCCCCCCCCCCCCC(=O)OCC(COC(=O)CCCCCCCCCCCCCCCCC)OC(=O)CCCCCCCCCCCCCCCCC [glycerol trioctadecanoate]
Conditions | molar heat capacity at constant pressure [J/K/mol]
9.6 K, Crystal | 10.7
9.65 K, Crystal | 8.023
9.71 K, Crystal | 12.48
10.85 K, Crystal | 22.29
11.58 K, Crystal | 22.29
12.51 K, Crystal | 26.74
13.59 K, Crystal | 30.31
13.96 K, Crystal | 32.98
15.41 K, Crystal | 39.23
15.56 K, Crystal | 43.68
17.3 K, Crystal | 62.4
17.41 K, Crystal | 50.81
19.33 K, Crystal | 69.54
19.45 K, Crystal | 65.97
21.54 K, Crystal | 79.34
21.58 K, Crystal | 82.02
23.71 K, Crystal | 98.06
23.86 K, Crystal | 100.74
25.95 K, Crystal | 115
26.19 K, Crystal | 116.78
28.25 K, Crystal | 135.5
28.56 K, Crystal | 137.29
30.62 K, Crystal | 156.9
30.93 K, Crystal | 149.77
30.99 K, Crystal | 158.68
33.29 K, Crystal | 184.54
35.42 K, Crystal | 205.04
37.51 K, Crystal | 215.74
39.73 K, Crystal | 224.65
41.97 K, Crystal | 239.81
44.25 K, Crystal | 262.99
46.55 K, Crystal | 273.68
48.96 K, Crystal | 294.19
51.41 K, Crystal | 312.02
53.88 K, Crystal | 332.52
56.39 K, Crystal | 354.81
58.93 K, Crystal | 372.64
61.51 K, Crystal | 394.03
64.13 K, Crystal | 415.43
66.78 K, Crystal | 434.15
69.45 K, Crystal | 451.98
72.14 K, Crystal | 468.03
74.85 K, Crystal | 484.07
77.59 K, Crystal | 501.01
80.34 K, Crystal | 514.38
83.1 K, Crystal | 530.43
85.71 K, Crystal | 540.24
85.88 K, Crystal | 545.59
88.61 K, Crystal | 554.5
88.67 K, Crystal | 558.07
91.44 K, Crystal | 566.09
91.47 K, Crystal | 572.33
94.27 K, Crystal | 578.57
97.11 K, Crystal | 585.7
99.95 K, Crystal | 597.29
102.8 K, Crystal | 610.66
105.65 K, Crystal | 612.45
108.5 K, Crystal | 616.01
111.36 K, Crystal | 627.6
114.22 K, Crystal | 640.08
117.09 K, Crystal | 651.67
119.95 K, Crystal | 661.48
122.82 K, Crystal | 671.28
125.7 K, Crystal | 680.2
128.58 K, Crystal | 690.9
131.46 K, Crystal | 729.23
134.35 K, Crystal | 729.23
137.23 K, Crystal | 716.75
140.13 K, Crystal | 728.34
143.02 K, Crystal | 739.93
145.92 K, Crystal | 759.54
148.83 K, Crystal | 769.35
151.73 K, Crystal | 778.26
154.64 K, Crystal | 790.74
157.55 K, Crystal | 793.42
160.46 K, Crystal | 818.38
163.37 K, Crystal | 826.4
166.29 K, Crystal | 837.99
169.2 K, Crystal | 848.69
172.12 K, Crystal | 856.71
175.04 K, Crystal | 870.08
177.95 K, Crystal | 878.11
178.91 K, Metastable crystal | 900.39
180.87 K, Crystal | 890.59
181.6 K, Metastable crystal | 918.22
183.79 K, Crystal | 901.29
184.26 K, Metastable crystal | 942.29
186.7 K, Crystal | 921.79
186.88 K, Metastable crystal | 974.39
189.48 K, Metastable crystal | 985.98
189.62 K, Crystal | 938.73
192.06 K, Metastable crystal | 995.78
192.54 K, Crystal | 957.45
194.63 K, Metastable crystal | 998.46
195.45 K, Crystal | 972.6
197.18 K, Metastable crystal | 1005.6
198.37 K, Crystal | 976.17
199.71 K, Metastable crystal | 1029.7
201.29 K, Crystal | 997.57
202.23 K, Metastable crystal | 1053.7
204.21 K, Crystal | 1008.3
204.74 K, Metastable crystal | 1074.2
207.13 K, Crystal | 1014.5
207.23 K, Metastable crystal | 1089.4
209.71 K, Metastable crystal | 1083.1
210.05 K, Crystal | 1023.4
212.17 K, Metastable crystal | 1091.2
212.96 K, Crystal | 1029.7
214.62 K, Metastable crystal | 1110.8
215.88 K, Crystal | 1037.7
217.06 K, Metastable crystal | 1127.7
218.8 K, Crystal | 1044.8
219.48 K, Metastable crystal | 1147.3
221.72 K, Crystal | 1048.4
221.9 K, Metastable crystal | 1157.1
224.3 K, Metastable crystal | 1170.5
224.64 K, Crystal | 1057.3
226.69 K, Metastable crystal | 1185.7
227.55 K, Crystal | 1067.1
229.06 K, Metastable crystal | 1200.8
230.47 K, Crystal | 1080.5
231.43 K, Metastable crystal | 1217.8
233.39 K, Crystal | 1094.7
233.79 K, Metastable crystal | 1238.3
236.13 K, Metastable crystal | 1256.1
236.3 K, Crystal | 1107.2
238.46 K, Metastable crystal | 1271.3
239.22 K, Crystal | 1121.5
240.79 K, Metastable crystal | 1288.2
242.14 K, Crystal | 1134
243.1 K, Metastable crystal | 1307.8
245.06 K, Crystal | 1149.1
245.41 K, Metastable crystal | 1327.4
247.71 K, Metastable crystal | 1339.9
247.98 K, Crystal | 1165.2
250 K, Metastable crystal | 1358.6
250.9 K, Crystal | 1177.6
252.28 K, Metastable crystal | 1376.4
253.82 K, Crystal | 1192.8
254.56 K, Metastable crystal | 1397.8
256.74 K, Crystal | 1208
256.83 K, Metastable crystal | 1413
259.09 K, Metastable crystal | 1426.4
259.67 K, Crystal | 1222.2
261.34 K, Metastable crystal | 1444.2
262.6 K, Crystal | 1238.3
263.59 K, Metastable crystal | 1461.1
265.53 K, Crystal | 1254.3
265.83 K, Metastable crystal | 1479
268.07 K, Metastable crystal | 1495
268.46 K, Crystal | 1271.3
270.3 K, Metastable crystal | 1515.5
271.39 K, Crystal | 1285.5
272.53 K, Metastable crystal | 1532.5
274.33 K, Crystal | 1301.6
274.75 K, Metastable crystal | 1553
276.96 K, Metastable crystal | 1577.9
277.27 K, Crystal | 1327.4
279.18 K, Metastable crystal | 1590.4
280.21 K, Crystal | 1339
281.39 K, Metastable crystal | 1610
283.16 K, Crystal | 1355
283.59 K, Metastable crystal | 1629.6
285.8 K, Metastable crystal | 1647.5
286.11 K, Crystal | 1371.1
288 K, Metastable crystal | 1670.6
289.07 K, Crystal | 1387.1
290.2 K, Metastable crystal | 1689.4
292.03 K, Crystal | 1412.1
292.39 K, Metastable crystal | 1716.1
294.59 K, Metastable crystal | 1733
294.99 K, Crystal | 1428.2
296.78 K, Metastable crystal | 1763.3
297.32 K, Crystal | 1434.4
297.96 K, Crystal | 1448.7
298.4 K, Crystal | 1436.2
298.97 K, Metastable crystal | 1787.4
299.84 K, Crystal | 1454.9
300.94 K, Crystal | 1466.5
301.16 K, Metastable crystal | 1815.9
301.82 K, Crystal | 1473.6
303.79 K, Crystal | 1492.3
304.05 K, Crystal | 1488.8
305.75 K, Crystal | 1508.4
306.72 K, Crystal | 1514.6
307.7 K, Crystal | 1523.5
308.94 K, Crystal | 1529.8
309.65 K, Crystal | 1536
311.17 K, Crystal | 1544
311.6 K, Crystal | 1552.1
313.39 K, Crystal | 1561
313.55 K, Crystal | 1569.9
315.49 K, Crystal | 1579.7
315.61 K, Crystal | 1576.1
317.43 K, Crystal | 1598.4
317.83 K, Crystal | 1598.4
319.37 K, Crystal | 1627.8
320.05 K, Crystal | 1624.3
321.32 K, Crystal | 1642.1
322.28 K, Crystal | 1645.7
323.27 K, Crystal | 1659.9
324.5 K, Crystal | 1666.2
325.23 K, Crystal | 1682.2
326.72 K, Crystal | 1692.9
327.2 K, Crystal | 1700.1
328.95 K, Crystal | 1713.4
329.17 K, Crystal | 1721.4
351.37 K, Liquid | 1971.1
353.63 K, Liquid | 1975.5
355.89 K, Liquid | 1981.8
358.16 K, Liquid | 1986.2
360.45 K, Liquid | 1992.5
362.74 K, Liquid | 1997.8
365.05 K, Liquid | 2004.9
367.37 K, Liquid | 2007.6
369.71 K, Liquid | 2015.6
